Test results reported in the supplement of paper PMC10733146.

Columns and labels:
Assay in all cases: viability relative to DMSO control (fraction); higher = less drug effect (more viable cells)
Settings in all cases: 48 h
[1] = compound: CN(C)C(=O)c1cc2cnc(Nc3ccc(N4CCNCC4)cn3)nc2n1C1CCCC1 [Ribociclib]
Outline: (§1)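 The cells were primary mononuclear tumour cells, either fresh or cryopreserved, isolated by Ficoll from blood or bone marrow or derived from processed lymph node. Each well of a 384-well plate received 4 × 10^4 cells onto compounds pre-plated at five concentrations, with one well per concentration. The medium was RPMI-1640 with penicillin/streptomycin, L-glutamine and human serum, and plates stood at 37 °C and 5% CO2 for 48 h. Viability is reported as CellTiter-Glo luminescence relative to the median of 16 inner DMSO wells.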

[2] = compound: COc1nc(N)nc2c1ncn2[C@@H]1O[C@H](CO)[C@@H](O)[C@@H]1O [Nelarabine]
Outline: as §1

[3] = compound: NC(=O)Nc1cc(-c2cccc(F)c2)sc1C(=O)N[C@H]1CCCNC1 [AZD7762]
Outline: as §1

[4] = compound: NC(=O)c1ccc(I)c([N+](=O)[O-])c1 [Iniparib]
Outline: as §1

[5] = compound: C#CCC(Cc1cnc2nc(N)nc(N)c2n1)c1ccc(C(=O)N[C@@H](CCC(=O)O)C(=O)O)cc1 [Pralatrexate]
Outline: as §1

[6] = compound: Cc1ccc(NC(=O)c2ccc(CN3CCN(C)CC3)cc2)cc1Nc1nccc(-c2cccnc2)n1 [Imatinib]
Outline: as §1

[7] = compound: Cc1[nH]c2ccccc2c1CCNCc1ccc(/C=C/C(=O)NO)cc1 [Panobinostat]
Outline: as §1

[8] = compound: Cc1cn(-c2cc(NC(=O)c3ccc(C)c(Nc4nccc(-c5cccnc5)n4)c3)cc(C(F)(F)F)c2)cn1 [Nilotinib]
Outline: as §1

[9] = compound: CC(C)C[C@H](NC(=O)[C@H](Cc1ccccc1)NC(=O)c1cnccn1)B(O)O [Bortezomib]
Outline: as §1

[10] = compound: C1=N/C2=N/c3ccc(OCCN4CCCC4)c(c3)COC/C=C/COCc3cccc(c3)C(=C1)N2 [Pacritinib]
Outline: as §1

[11] = compound: CC(C)(C)OC(=O)Nc1ccc(-c2cc(C(=O)NCCCCCCC(=O)NO)no2)cc1
Outline: as §1

[12] = compound: CC[C@H](NC(=O)[C@H](C)NC)C(=O)N1C[C@@H](O)C[C@H]1Cc1c(-c2[nH]c3cc(F)ccc3c2C[C@@H]2C[C@H](O)CN2C(=O)[C@H](CC)NC(=O)[C@H](C)NC)[nH]c2cc(F)ccc12 [Birinapant]
Outline: as §1

[13] = compound: OCc1ccc(-c2ccc(-c3ccc(CO)s3)o2)s1
Outline: as §1

[14] = compound: CC(=O)[C@]1(O)Cc2c(O)c3c(c(O)c2[C@@H](O[C@H]2C[C@H](N)[C@H](O)[C@H](C)O2)C1)C(=O)c1ccccc1C3=O [Idarubicin]
Outline: as §1

[15] = compound: CCCS(=O)(=O)Nc1ccc(F)c(C(=O)c2c[nH]c3ncc(-c4ccc(Cl)cc4)cc23)c1F [Vemurafenib]
Outline: as §1

primary ALL patient cells (S048) was tested, and the viability ([1]; 0.024 µM) was 0.682, the viability ([1]; 0.12 µM) was 0.676 and the viability ([1]; 0.6 µM) was 0.692. The viability ([1]; 3 µM) was 0.681, the viability ([1]; 15 µM) was 0.615 and the viability ([2]; 0.024 µM) was 1.03. It also gave a viability ([2]; 0.12 µM) of 1.04, a viability ([2]; 0.6 µM) of 0.927 and a viability ([2]; 3 µM) of 0.82. The viability ([2]; 15 µM) was 0.587, the viability ([3]; 0.024 µM) was 0.546 and the viability ([3]; 0.12 µM) was 0.493. For the same test system, the viability ([3]; 0.6 µM) was 0.296, the viability ([3]; 3 µM) was 0.161 and the viability ([3]; 15 µM) was 0.0819. It also gave a viability ([4]; 0.024 µM) of 1.09, a viability ([4]; 0.12 µM) of 1.07 and a viability ([4]; 0.6 µM) of 0.988. It also gave a viability ([4]; 3 µM) of 0.957, a viability ([4]; 15 µM) of 0.759 and a viability ([5]; 0.024 µM) of 0.993. It also gave a viability ([5]; 0.12 µM) of 0.895, a viability ([5]; 0.6 µM) of 0.868 and a viability ([5]; 3 µM) of 0.872. For the same test system, the viability ([5]; 15 µM) was 0.844, the viability ([6]; 0.016 µM) was 1.08 and the viability ([6]; 0.08 µM) was 1.08. The viability ([6]; 2 µM) was 1.13, the viability ([6]; 10 µM) was 1.17 and the viability ([7]; 0.00064 µM) was 0.516. For the same test system, the viability ([7]; 0.0032 µM) was 0.145, the viability ([7]; 0.016 µM) was 0.0582 and the viability ([7]; 0.08 µM) was 0.074. For the same test system, the viability ([7]; 0.4 µM) was 0.0593, the viability ([8]; 0.016 µM) was 1.1 and the viability ([8]; 0.08 µM) was 1.2. The viability ([8]; 0.4 µM) was 1.06, the viability ([8]; 2 µM) was 1.25 and the viability ([8]; 10 µM) was 1.11. The viability ([9]; 0.008 µM) was 0.869, the viability ([9]; 0.04 µM) was 0.969 and the viability ([9]; 0.2 µM) was 0.895. For the same test system, the viability ([9]; 1 µM) was 0.96, the viability ([9]; 5 µM) was 0.887 and the viability ([10]; 0.024 µM) was 0.907. For the same test system, the viability ([10]; 0.12 µM) was 0.786, the viability ([10]; 0.6 µM) was 0.603 and the viability ([10]; 3 µM) was 0.591. The viability ([10]; 15 µM) was 0.0174, the viability ([11]; 0.024 µM) was 0.479 and the viability ([11]; 0.12 µM) was 0.287. For the same test system, the viability ([11]; 0.6 µM) was 0.104, the viability ([11]; 3 µM) was 0.0485 and the viability ([11]; 15 µM) was 0.0165. It also gave a viability ([12]; 0.0008 µM) of 0.705, a viability ([12]; 0.004 µM) of 0.698 and a viability ([12]; 0.02 µM) of 0.683. The viability ([12]; 0.1 µM) was 0.68, the viability ([12]; 0.5 µM) was 0.685 and the viability ([13]; 0.024 µM) was 0.718. It also gave a viability ([13]; 0.12 µM) of 0.687, a viability ([13]; 0.6 µM) of 0.455 and a viability ([13]; 3 µM) of 0.188. It also gave a viability ([13]; 15 µM) of 0.0399, a viability ([14]; 0.024 µM) of 0.171 and a viability ([14]; 0.12 µM) of 0.0644. It also gave a viability ([14]; 0.6 µM) of 0.0177, a viability ([14]; 3 µM) of 0.0135 and a viability ([14]; 15 µM) of 0.0126. The viability ([15]; 0.024 µM) was 0.967, the viability ([15]; 0.12 µM) was 1.05 and the viability ([15]; 0.6 µM) was 0.931. The viability ([15]; 3 µM) was 1.04 and the viability ([15]; 15 µM) was 1.29.

In the case of primary MCL patient cells (S041), the viability ([1]; 0.024 µM) is reported as 0.966, the viability ([1]; 0.12 µM) is reported as 0.961 and the viability ([1]; 0.6 µM) is reported as 0.949. It also gave a viability ([1]; 3 µM) of 0.844, a viability ([1]; 15 µM) of 0.617 and a viability ([2]; 0.024 µM) of 1.03. It also gave a viability ([2]; 0.12 µM) of 1.02, a viability ([2]; 0.6 µM) of 1 and a viability ([2]; 3 µM) of 1.01. It also gave a viability ([2]; 15 µM) of 0.937, a viability ([3]; 0.024 µM) of 0.732 and a viability ([3]; 0.12 µM) of 0.648. The viability ([3]; 0.6 µM) was 0.586, the viability ([3]; 3 µM) was 0.383 and the viability ([3]; 15 µM) was 0.158. It also gave a viability ([4]; 0.024 µM) of 1.11, a viability ([4]; 0.12 µM) of 1.03 and a viability ([4]; 0.6 µM) of 0.999. For the same test system, the viability ([4]; 3 µM) was 1.01, the viability ([4]; 15 µM) was 0.969 and the viability ([5]; 0.024 µM) was 0.779. For the same test system, the viability ([5]; 0.12 µM) was 0.713, the viability ([5]; 0.6 µM) was 0.724 and the viability ([5]; 3 µM) was 0.721. It also gave a viability ([5]; 15 µM) of 0.733, a viability ([6]; 0.016 µM) of 1.07 and a viability ([6]; 0.4 µM) of 1.05. It also gave a viability ([6]; 2 µM) of 1, a viability ([6]; 10 µM) of 0.834 and a viability ([7]; 0.00064 µM) of 0.955. It also gave a viability ([7]; 0.0032 µM) of 0.803, a viability ([7]; 0.016 µM) of 0.218 and a viability ([7]; 0.08 µM) of 0.174. For the same test system, the viability ([7]; 0.4 µM) was 0.171, the viability ([8]; 0.016 µM) was 1.12 and the viability ([8]; 0.08 µM) was 1.14. For the same test system, the viability ([8]; 0.4 µM) was 1.09, the viability ([8]; 2 µM) was 1.09 and the viability ([8]; 10 µM) was 1.12. For the same test system, the viability ([9]; 0.008 µM) was 0.945, the viability ([9]; 0.04 µM) was 1.04 and the viability ([9]; 0.2 µM) was 0.942. It also gave a viability ([9]; 1 µM) of 1.06, a viability ([9]; 5 µM) of 0.924 and a viability ([10]; 0.024 µM) of 1.06. For the same test system, the viability ([10]; 0.12 µM) was 1.01, the viability ([10]; 0.6 µM) was 0.891 and the viability ([10]; 3 µM) was 0.135. It also gave a viability ([10]; 15 µM) of 0.0153, a viability ([11]; 0.024 µM) of 1.02 and a viability ([11]; 0.12 µM) of 0.884. For the same test system, the viability ([11]; 0.6 µM) was 0.65, the viability ([11]; 3 µM) was 0.221 and the viability ([11]; 15 µM) was 0.0737. It also gave a viability ([12]; 0.0008 µM) of 0.85, a viability ([12]; 0.004 µM) of 0.884 and a viability ([12]; 0.02 µM) of 0.934. The viability ([12]; 0.1 µM) was 0.87, the viability ([12]; 0.5 µM) was 0.967 and the viability ([13]; 0.024 µM) was 0.981. The viability ([13]; 0.12 µM) was 0.99, the viability ([13]; 0.6 µM) was 0.923 and the viability ([13]; 3 µM) was 0.843. For the same test system, the viability ([13]; 15 µM) was 0.581, the viability ([14]; 0.024 µM) was 0.985 and the viability ([14]; 0.12 µM) was 0.462. For the same test system, the viability ([14]; 0.6 µM) was 0.0191, the viability ([14]; 3 µM) was 0.0267 and the viability ([14]; 15 µM) was 0.0135. The viability ([15]; 0.024 µM) was 0.961, the viability ([15]; 0.12 µM) was 1 and the viability ([15]; 0.6 µM) was 0.944. The viability ([15]; 3 µM) was 0.979 and the viability ([15]; 15 µM) was 1.04.
